Laboratory results as given in patent US12077503B2, “Substituted cyclic amides and their use as herbicides” (FMC CORPORATION, priority 2015, dated 2024).

Tests used:
Type in all cases: in vivo
[1] = test system: redroot pigweed (Amaranthus retroflexus); assay: Test G Post-Emergence Protocol; conditions: Amaranthus retroflexus, post-emergence, 312 h; for pest or weed control at 15.625 g/ha: 15.625 g ai/ha, evaluated after 13 days (100=total damage to plant; 0=no damage to plant), read-out: Pigweed, Redroot damage rating; for pest or weed control at 62.5 g/ha: 62.5 g ai/ha, read-out: Pigweed, Redroot damage rating (100=total damage to plant; 0=no damage to plant); for pest or weed control at 62.5 g/ha / pest or weed control at 250 g/ha: evaluated after 13 days; for pest or weed control at 250 g/ha: 250 g ai/ha, read-out: damage to plant, Pigweed, Redroot (100=total damage to plant; 0=no damage to plant)
Procedure, shortened: (§1)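 Eight days post-sowing, plants received a spray of test compound (acetone/water 50:50, 0.5% Tween 20) at 15.625, 62.5 or 250 g/ha. Glasshouse regime thereafter: 24/16 °C, 14 h light, 65% humidity. Assessment after 13 days on a 0–100 damage scale.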

[2] = test system: velvetleaf (Abutilon theophrasti); assay: Test G Post-Emergence Protocol; conditions: Abutilon theophrasti, post-emergence, 312 h; for pest or weed control at 15.625 g/ha: 15.625 g ai/ha, evaluated after 13 days (100=total damage to plant; 0=no damage to plant), read-out: Velvetleaf damage rating; for pest or weed control at 62.5 g/ha: 62.5 g ai/ha, read-out: Velvetleaf damage rating (100=total damage to plant; 0=no damage to plant); for pest or weed control at 62.5 g/ha / pest or weed control at 250 g/ha: evaluated after 13 days; for pest or weed control at 250 g/ha: 250 g ai/ha, read-out: damage to plant, Velvetleaf (100=total damage to plant; 0=no damage to plant)
Procedure, shortened: as §1

corn (Zea mays) [3] = assay: Test G Post-Emergence Protocol; conditions: Zea mays, post-emergence, 312 h; for plant injury at 15.625 g/ha: 15.625 g ai/ha, evaluated after 13 days (100=total damage to plant; 0=no damage to plant), read-out: Corn damage rating; for plant injury at 62.5 g/ha: 62.5 g ai/ha, read-out: Corn damage rating (100=total damage to plant; 0=no damage to plant); for plant injury at 62.5 g/ha / plant injury at 250 g/ha: evaluated after 13 days; for plant injury at 250 g/ha: 250 g ai/ha, read-out: damage to plant, Corn (100=total damage to plant; 0=no damage to plant)
Procedure, shortened: as §1

[4] = test system: barnyardgrass (Echinochloa crus-galli); assay: Test G Post-Emergence Protocol; conditions: Echinochloa crus-galli, post-emergence, 312 h; for pest or weed control at 15.625 g/ha: 15.625 g ai/ha, evaluated after 13 days (100=total damage to plant; 0=no damage to plant), read-out: Barnyardgrass damage rating; for pest or weed control at 62.5 g/ha: 62.5 g ai/ha, read-out: Barnyardgrass damage rating (100=total damage to plant; 0=no damage to plant); for pest or weed control at 62.5 g/ha / pest or weed control at 250 g/ha: evaluated after 13 days; for pest or weed control at 250 g/ha: 250 g ai/ha, read-out: damage to plant, Barnyardgrass (100=total damage to plant; 0=no damage to plant)
Procedure, shortened: as §1

[5] = test system: giant foxtail (Setaria faberi); assay: Test G Post-Emergence Protocol; conditions: Setaria faberi, post-emergence, 312 h; for pest or weed control at 15.625 g/ha: 15.625 g ai/ha, evaluated after 13 days (100=total damage to plant; 0=no damage to plant), read-out: Foxtail, Giant damage rating; for pest or weed control at 62.5 g/ha: 62.5 g ai/ha, read-out: Foxtail, Giant damage rating (100=total damage to plant; 0=no damage to plant); for pest or weed control at 62.5 g/ha / pest or weed control at 250 g/ha: evaluated after 13 days; for pest or weed control at 250 g/ha: 250 g ai/ha, read-out: damage to plant, Foxtail, Giant (100=total damage to plant; 0=no damage to plant)
Procedure, shortened: as §1

[6] = test system: ivy-leaved morning glory (Ipomoea hederacea); assay: Test G Post-Emergence Protocol; conditions: Ipomoea, post-emergence, 312 h; for pest or weed control at 15.625 g/ha: 15.625 g ai/ha, evaluated after 13 days (100=total damage to plant; 0=no damage to plant), read-out: Morningglory, Ivy-leaved damage rating; for pest or weed control at 62.5 g/ha: 62.5 g ai/ha, read-out: Morningglory, Ivy-leaved damage rating (100=total damage to plant; 0=no damage to plant); for pest or weed control at 62.5 g/ha / pest or weed control at 250 g/ha: evaluated after 13 days; for pest or weed control at 250 g/ha: 250 g ai/ha, read-out: damage to plant, Morningglory, Ivy-leaved (100=total damage to plant; 0=no damage to plant)
Procedure, shortened: as §1

[7] = test system: redroot pigweed (Amaranthus retroflexus); assay: Test G Pre-Emergence Protocol; conditions: Amaranthus retroflexus, pre-emergence, 312 h, evaluated after 13 days; for pest or weed control at 15.625 g/ha: 15.625 g ai/ha; for pest or weed control at 15.625 g/ha / pest or weed control at 250 g/ha: read-out: Pigweed, Redroot damage rating (100=total damage to plant; 0=no damage to plant); for pest or weed control at 62.5 g/ha: 62.5 g ai/ha, 100=total damage to plant, 0=no damage to plant, read-out: plant damage rating, Pigweed, Redroot; for pest or weed control at 250 g/ha: 250 g ai/ha
Procedure, shortened: (§2)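 Herbicidal effect was rated 13 days post-application on a scale where 100 equals total damage. Spraying took place the day after sowing, using 15.625, 62.5 or 250 g/ha of compound in a 50:50 acetone/water solution with 0.5% Tween 20.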

[8] = test system: velvetleaf (Abutilon theophrasti); assay: Test G Pre-Emergence Protocol; conditions: Abutilon theophrasti, pre-emergence, 312 h, evaluated after 13 days; for pest or weed control at 15.625 g/ha: 15.625 g ai/ha; for pest or weed control at 15.625 g/ha / pest or weed control at 250 g/ha: read-out: Velvetleaf damage rating (100=total damage to plant; 0=no damage to plant); for pest or weed control at 62.5 g/ha: 62.5 g ai/ha, 100=total damage to plant, 0=no damage to plant, read-out: plant damage rating, Velvetleaf; for pest or weed control at 250 g/ha: 250 g ai/ha
Procedure, shortened: as §2

corn (Zea mays) [9] = assay: Test G Pre-Emergence Protocol; conditions: Zea mays, pre-emergence, 312 h, evaluated after 13 days; for plant injury at 15.625 g/ha: 15.625 g ai/ha; for plant injury at 15.625 g/ha / plant injury at 250 g/ha: read-out: Corn damage rating (100=total damage to plant; 0=no damage to plant); for plant injury at 62.5 g/ha: 62.5 g ai/ha, 100=total damage to plant, 0=no damage to plant, read-out: plant damage rating, Corn; for plant injury at 250 g/ha: 250 g ai/ha
Procedure, shortened: as §2

[10] = test system: barnyardgrass (Echinochloa crus-galli); assay: Test G Pre-Emergence Protocol; conditions: Echinochloa crus-galli, pre-emergence, 312 h, evaluated after 13 days; for pest or weed control at 15.625 g/ha: 15.625 g ai/ha, read-out: Barnyard grass damage rating (100=total damage to plant; 0=no damage to plant); for pest or weed control at 62.5 g/ha: 62.5 g ai/ha, 100=total damage to plant, 0=no damage to plant, read-out: plant damage rating, Barnyardgrass; for pest or weed control at 250 g/ha: 250 g ai/ha, read-out: Barnyardgrass damage rating (100=total damage to plant; 0=no damage to plant)
Procedure, shortened: as §2

[11] = test system: giant foxtail (Setaria faberi); assay: Test G Pre-Emergence Protocol; conditions: Setaria faberi, pre-emergence, 312 h, evaluated after 13 days; for pest or weed control at 15.625 g/ha: 15.625 g ai/ha; for pest or weed control at 15.625 g/ha / pest or weed control at 250 g/ha: read-out: Foxtail, Giant damage rating (100=total damage to plant; 0=no damage to plant); for pest or weed control at 62.5 g/ha: 62.5 g ai/ha, 100=total damage to plant, 0=no damage to plant, read-out: plant damage rating, Foxtail, Giant; for pest or weed control at 250 g/ha: 250 g ai/ha
Procedure, shortened: as §2

[12] = test system: ivy-leaved morning glory (Ipomoea hederacea); assay: Test G Pre-Emergence Protocol; conditions: Ipomoea, pre-emergence, 312 h, evaluated after 13 days; for pest or weed control at 15.625 g/ha: 15.625 g ai/ha, read-out: Morning-glory, Ivy-leaved damage rating (100=total damage to plant; 0=no damage to plant); for pest or weed control at 62.5 g/ha: 62.5 g ai/ha, 100=total damage to plant, 0=no damage to plant, read-out: plant damage rating, Morningglory, Ivy-leaved; for pest or weed control at 250 g/ha: 250 g ai/ha, read-out: Morningglory, Ivy-leaved damage rating (100=total damage to plant; 0=no damage to plant)
Procedure, shortened: as §2

| Structure (SMILES) | pest or weed control at 15.625 g/ha [1] [%] | pest or weed control at 62.5 g/ha [1] [%] | pest or weed control at 250 g/ha [1] [%] | pest or weed control at 15.625 g/ha [2] [%] | pest or weed control at 62.5 g/ha [2] [%] | pest or weed control at 250 g/ha [2] [%] | plant injury at 15.625 g/ha (corn (Zea mays) [3]) [%] | plant injury at 62.5 g/ha (corn (Zea mays) [3]) [%] | plant injury at 250 g/ha (corn (Zea mays) [3]) [%] | pest or weed control at 15.625 g/ha [4] [%] | pest or weed control at 62.5 g/ha [4] [%] | pest or weed control at 250 g/ha [4] [%] | pest or weed control at 15.625 g/ha [5] [%] | pest or weed control at 62.5 g/ha [5] [%] | pest or weed control at 250 g/ha [5] [%] | pest or weed control at 15.625 g/ha [6] [%] | pest or weed control at 62.5 g/ha [6] [%] | pest or weed control at 250 g/ha [6] [%] | pest or weed control at 15.625 g/ha [7] [%] | pest or weed control at 62.5 g/ha [7] [%] | further results |
| --- | --- | --- | --- | --- | --- | --- | --- | --- | --- | --- | --- | --- | --- | --- | --- | --- | --- | --- | --- | --- | --- |
| C=C(C)c1ccccc1NC(=O)[C@H]1C(=O)N(C)C[C@@H]1c1ccc(C(F)(F)F)cc1 (racemic) [Compound 1449] | 0 | 0 | 30 | 0 | 0 | 0 | 0 | 0 | 10 | 0 | 10 | 30 | 0 | 20 | 60 | 0 | 0 | 10 | 0 | 0 | pest or weed control at 250 g/ha [7]: 0%; pest or weed control at 15.625 g/ha [8]: 0%; pest or weed control at 62.5 g/ha [8]: 0%; pest or weed control at 250 g/ha [8]: 0%; plant injury at 15.625 g/ha (corn (Zea mays) [9]): 0%; plant injury at 62.5 g/ha (corn (Zea mays) [9]): 0%; plant injury at 250 g/ha (corn (Zea mays) [9]): 0%; pest or weed control at 15.625 g/ha [10]: 0%; pest or weed control at 62.5 g/ha [10]: 0%; pest or weed control at 250 g/ha [10]: 30%; pest or weed control at 15.625 g/ha [11]: 10%; pest or weed control at 62.5 g/ha [11]: 70%; pest or weed control at 250 g/ha [11]: 80%; pest or weed control at 15.625 g/ha [12]: 0%; pest or weed control at 62.5 g/ha [12]: 0%; pest or weed control at 250 g/ha [12]: 0% |
| CN1C[C@@H](c2ccc(C(F)(F)F)cc2)[C@H](C(=O)Nc2ccc(F)c(F)c2Cl)C1=O (racemic) [Compound 1627] | 20 | 60 | 70 | 0 | 20 | 40 | 0 | 30 | 70 | 20 | 70 | 80 | 70 | 80 | 80 | 60 | 70 | 70 | 0 | 50 | pest or weed control at 250 g/ha [7]: 60%; pest or weed control at 15.625 g/ha [8]: 0%; pest or weed control at 62.5 g/ha [8]: 20%; pest or weed control at 250 g/ha [8]: 20%; plant injury at 15.625 g/ha (corn (Zea mays) [9]): 0%; plant injury at 62.5 g/ha (corn (Zea mays) [9]): 10%; plant injury at 250 g/ha (corn (Zea mays) [9]): 70%; pest or weed control at 15.625 g/ha [10]: 0%; pest or weed control at 62.5 g/ha [10]: 40%; pest or weed control at 250 g/ha [10]: 80%; pest or weed control at 15.625 g/ha [11]: 70%; pest or weed control at 62.5 g/ha [11]: 80%; pest or weed control at 250 g/ha [11]: 80%; pest or weed control at 15.625 g/ha [12]: 0%; pest or weed control at 62.5 g/ha [12]: 0%; pest or weed control at 250 g/ha [12]: 10% |
